For six molecules, EC50 and IC50 results are on record in patent US5750523A, “Pyridazinone derivatives” (Nissan Chemical Industries, Ltd., priority 1994, dated 1998).

Structures are written as SMILES. Where a name gives a salt, the structure may show the parent alone. Read-outs that look alike come from different tables or passages of the source.

Assay [1] concerns rabbit thoracic aorta ring specimen. Briefly: Vasodilation effect, relaxation of phenylephrine contraction of rabbit thoracic aorta ring. The conditions noted are these: Oryctolagus cuniculus; contraction by phenylephrine 10^-5 M; cumulative administration from 3×10^-9 M; papaverine hydrochloride 10^-4 M = 100%; Table IV. The method, then:
By using a rabbit thoracic aorta ring specimen, the relaxation effect of a test sample drug on contraction by phenylephrine (10^-5 M) was evaluated. A test sample drug was administered cumulatively from a concentration of 3×10^-9 M, after the contraction became stable. The results were expressed on the basis that the relaxation effect of papaverine hydrochloride (10^-4 M) was 100%.
The comparative compound was the same as in Test Example 1.

Assay [2] relates to Rabbit PRP (platelet aggregation). In words: Antiplatelet aggregation effect, rabbit platelet rich plasma (PRP). The class given is cell-based, male Japanese white rabbits. To be noted: 37° C., 2 minutes incubation, Table III. As to the method: (§1) Blood was collected from the abdominal aortae of male Wister rats (weight: 200 to 300 g) or male Japanese white rabbits (weight: 1.8 to 2.5 kg) into a syringe containing 1/10 volume 3.8% sodium citrate. The blood thus obtained was centrifuged at 200×g for 7 minutes at room temperature to obtain platelet rich plasma (PRP). Furthermore, the residue was centrifuged at 2000×g for 10 minutes to obtain platelet poor plasma (PPP). The measurement was effected by diluting PRP and PPP to 300,000/mm^3. PRP and PPP were put in cuvettes, and the measurement range of transmittance was adjusted to 0% in the case of PRP and to 100% in the case of PPP. Thereafter, a test sample drug dissolved in 100% dimethyl sulfoxide (DMSO) was added to PRP (the final concentration of DMSO: 0.25%). After incubation at 37° C. and 900 rpm for 2 minutes, an aggregating agent was added to measure an aggregation curve. The antiplatelet aggregation effect of the test sample drug was expressed by a concentration, IC50 (μM), at which the aggregation of control sample was 50% inhibited. The aggregating agents ADP and collagen were used at minimum concentrations (ADP: 5 to 10 μM: collagen : 2.5 to 10 μg/ml) which caused maximum aggregation. The measurement of platelet aggregation was carried out by using NBS HEMA TRACER 601.
(§2) Tables II and III show antiplatelet aggregation effects of test compounds evaluated as IC50 values (μM).
As a comparative compound, the following compound disclosed in reference (d) was used. [drawing 20]

Assay [3] relates to Rat PRP (platelet aggregation). In words: Antiplatelet aggregation effect, rat platelet rich plasma (PRP). The conditions noted are these: 37° C., 2 minutes incubation, Table II. The class given is cell-based, male Wister rats. As to the method:
as §1, §2

Setting [4] is: Oryctolagus cuniculus, Platelet, 2 min, aggregating agent ADP 5 to 10 μM, read-out: Rabbit PRP IC50, ADP.
Where [5] appears, read: Oryctolagus cuniculus, Platelet, 2 min, aggregating agent collagen 2.5 to 10 μg/ml, read-out: Rabbit PRP IC50, Collagen.
Setting [6] is: Rattus norvegicus, Platelet, 2 min, aggregating agent ADP 5 to 10 μM, read-out: Rat PRP IC50, ADP.

What is called EC50 is the concentration that produces a half-maximal response. For orientation: IC50 means the concentration at which inhibition is half-maximal. In assay [1], `O=c1[nH]nc(OCCC(O)c2ccc(Cl)cc2)c(NCc2cccnc2)c1Br` (centres unmarked) [Compound No. 1, 4-bromo-6-[3-(4-chlorophenyl)-3-hydroxypropyloxy]-5-(3-pyridylylmethylamino)-3(2H)pyridazinone] had an EC50 of 1300 nM. Besides, the IC50 was determined as 50 nM in assay [2] (setting [4]); 10 nM in assay [2] (setting [5]); 230 nM in assay [3] (setting [6]); 99 nM in assay [3] (aggregating agent collagen 2.5 to 10 μg/ml, read-out: Rat PRP IC50, Collagen).
With `O=c1[nH]nc(OCCC(O)c2ccc(Cl)cc2)c(NCc2cccnc2)c1Br` (centres unmarked) [Compound No. 65, 4-bromo-6-[3-(4-chlorophenyl)-3-hydroxypropyloxy]-5-(3-pyridylylmethylamino)-3(2H)pyridazinone hydrochloride], the IC50 turned out to be 53 nM in assay [2] (aggregating agent ADP 5 to 10 μM, hydrochloride, read-out: Rabbit PRP IC50, ADP); 19 nM in assay [2] (aggregating agent collagen 2.5 to 10 μg/ml, hydrochloride, read-out: Rabbit PRP IC50, Collagen); 210 nM in assay [3] (aggregating agent ADP 5 to 10 μM, hydrochloride, read-out: Rat PRP IC50, ADP); 220 nM in assay [3] (aggregating agent collagen 2.5 to 10 μg/ml, hydrochloride, read-out: Rat PRP IC50, Collagen).
On to `O=C1CCc2cc(OCCCCc3nnnn3C3CCCCC3)ccc2N1` [Cilostazol, reference compound], for which the values for the IC50 in assay [2] (setting [4]) and in assay [2] (setting [5]) were 15000 nM and 2400 nM, respectively.
Turning to `O=c1[nH]nc(OCC[C@@H](O)c2ccc(Cl)cc2)c(NCc2cccnc2)c1Br` [Compound No. 93, 4-bromo-6-[(3R)-3-(4-chlorophenyl)-3-hydroxylpropyloxy]-5-(3-pyridylylmethylamino)-3(2H)pyridazinone hydrochloride], the IC50 in assay [2] (setting [4]) was determined as 47 nM; in assay [2] (setting [5]), 9.7 nM.
`O=c1[nH]nc(OCCCc2ccc(Cl)cc2)c(NCc2cccnc2)c1Br` [Comparative Compound, reference compound] had an EC50 in assay [1] of 400 nM. For the same molecule, the IC50 in assay [2] (setting [4]) turned out to be 81 nM; in assay [2] (setting [5]), 17 nM.
Consider `COc1ccc(CNc2c(OCCC(O)c3ccc(Cl)cc3)n[nH]c(=O)c2Br)cc1OC` (centres unmarked) [Compound No. 2, 4-bromo-6-[3-(4-chlorophenyl)-3-hydroxypropyloxy]-5-(3,4-dimethoxybenzylamino)-3(2H)pyridazinone], for which the IC50 in assay [2] (setting [4]) amounted to 41 nM; in assay [2] (setting [5]), 20 nM; in assay [3] (setting [6]), 72 nM; in assay [3] (Rattus norvegicus, Platelet, 2 min, aggregating agent collagen 2.5 to 10 μg/ml, read-out: Rat PRP IC50, Collagen), 190 nM.
